According to patent US20030097221A1, “Detection and characterization of psychoactives using parallel multi-site assays in brain tissue” (priority 2001, published 2003):
Values joined by “and” are separate entries in the source; they are usually repeats but may differ in a detail not shown here. Equal values may be shown once.

Legend:
Format in all cases: cell-based, rat
[1] = tested on: glutamate receptor-mediated evoked excitatory synaptic transmission, hippocampal slice dentate gyrus; test: Paired-pulse evoked fEPSP in dentate gyrus (assay DG50), MED64; settings: 250 μM; 50 ms inter-pulse delay
Method: A 17-24 day old Sprague Dawley rat was decapitated after anesthesia with halothane (2-bromo-2-chloro-1,1,1-trifluoroethane; Sigma; B4388), and the whole brain was removed. The brain was immediately soaked for ˜2 min in ice-cold, oxygenated preparation buffer of the following composition (in mM): 124 NaCl, 26 NaHCO3, 10 glucose, 3 KCl, 1.25 NaH2PO4, 2 CaCl2, and 2 MgSO4. Appropriate portions of the brain were trimmed and placed on the ice-cold stage of a vibrating tissue slicer (Leica, Nussloch, Germany; VT-1000S). The stage was immediately filled with both oxygenated and frozen preparation buffers. The thickness of each tissue slice was 350 μm. Each slice was gently taken off the blade, and immediately soaked in the oxygenated artificial cerebrospinal fluid (ACSF) for at least 1 hr at room temperature. Then a slice was placed on the center of the MED probe. The slice was positioned to cover the 8×8 array. After positioning the slice, the MED probe was immediately placed in a box filled with 95% O2 and 5% CO2. […]
(§1) Evoked field potentials at all 64 sites (minus stimulation sites) were recorded simultaneously with the multichannel recording system (Panasonic: MED64 system) at a 20 kHz sampling rate. […]
(§2) All assays employ paired-pulse stimulation at various rat hippocampal sites to elicit evoked responses. The resulting field EPSP recordings were analyzed using Matlab software (The MathWorks, Inc.) by computing several response measures such as amplitude, halfwidth, and negative area, which apply to both the first and second evoked reponses. Amplitude was defined as the maximum depolarization magnitude relative to the average baseline reading prior to the first stimulation pulse. […]
The polarity of the evoked responses for assay DG50 was reversed before analysis because of the inverted voltage values recorded by the DG50 electrode. Assays SC50, SC200, MF50, and CA3-1—50, however, were analyzed without such a reversal. […]
(§3) All response paramters were utilized to quantify candidate sample composition effects on the hippocampus. […]

[2] = tested on: glutamate receptor-mediated evoked excitatory synaptic transmission, hippocampal slice mossy fibers; test: Paired-pulse evoked fEPSP, mossy fibers (assay MF50), MED64; settings: 250 μM; 50 ms inter-pulse delay
Method: A 17-24 day old Sprague Dawley rat was decapitated after anesthesia with halothane (2-bromo-2-chloro-1,1,1-trifluoroethane; Sigma; B4388), and the whole brain was removed. The brain was immediately soaked for ˜2 min in ice-cold, oxygenated preparation buffer of the following composition (in mM): 124 NaCl, 26 NaHCO3, 10 glucose, 3 KCl, 1.25 NaH2PO4, 2 CaCl2, and 2 MgSO4. Appropriate portions of the brain were trimmed and placed on the ice-cold stage of a vibrating tissue slicer (Leica, Nussloch, Germany; VT-1000S). The stage was immediately filled with both oxygenated and frozen preparation buffers. The thickness of each tissue slice was 350 μm. […]
as §1, §2

[3] = tested on: hippocampal slice regions (CA1, DG, MF); test: Comparison between regions of the slice, area under the curve for all 4 assays (FIG. 9); settings: prediction drawn from the results of FIG. 9
Method: as §2, with “pulse. Halfwidth was defined as the duration of the depolarization phase of the evoked response at half its maximum amplitude value. Negative area was obtained by taking the magnitude of the integral of the evoked response curve over all segments with the same polarity as the depolarization phase. This integral spans a time window of 25 msec beginning one msec after the stimulation pulse.” for “pulse.”
as §3
To compare the response of tissue slices to candidate sample compositions between different regions of the slice, the area under the curve for all 4 assays was calculated.
To compare the effect of compounds in candidate sample compositions between different regions of a tissue slice, the area under the curve for all 4 assays was calculated. […]

[4] = tested on: glutamate receptor-mediated evoked excitatory synaptic transmission, hippocampal slice CA1; test: Paired-pulse evoked fEPSP in CA1, Schaffer collateral stimulation (assays SC50, SC200), MED64 multi-electrode array; design: key to SC 50 ms Amplitude fEPSP 1st, Mean / SC 50 ms Amplitude fEPSP 2nd, Mean / SC 200 ms Widths fEPSP 1st, Mean / SC 200 ms Widths fEPSP 2nd, Mean: fractional change vs. last 5 min of pre-wash-in control phase
Method: A 17-24 day old Sprague Dawley rat was decapitated after anesthesia with halothane (2-bromo-2-chloro-1,1,1-trifluoroethane; Sigma; B4388), and the whole brain was removed. The brain was immediately soaked for ˜2 min in ice-cold, oxygenated preparation buffer of the following composition (in mM): 124 NaCl, 26 NaHCO3, 10 glucose, 3 KCl, 1.25 NaH2PO4, 2 CaCl2, and 2 MgSO4. Appropriate portions of the brain were trimmed and placed on the ice-cold stage of a vibrating tissue slicer (Leica, Nussloch, Germany; VT-1000S). The stage was immediately filled with both oxygenated and frozen preparation buffers. The thickness of each tissue slice was 350 μm. Each slice was gently taken off the blade, and immediately soaked in the oxygenated artificial cerebrospinal fluid (ACSF) for at least 1 hr at room temperature. Then a slice was placed on the center of the MED probe. The slice was positioned to cover the 8×8 array. After positioning the slice, the MED probe was immediately placed in a box filled with 95% O2 and 5% CO2.
During recording, the slices were continuously perfused with a solution of the following composition: ACSF (in mM): 124 NaCl, 26 NaHCO3, 10 glucose, 3 KCl, 1.25 kH2PO4, 2 CaCl2, 1 MgSO4. All compounds were bath applied at known concentrations and were prepared daily from frozen aliquots. Compounds were purchased from Sigma. Ampakines (CX516, CX546, CX554) were made fresh everyday, and used at concentrations: CX516, 250 μM; CX546, 250 μM; and CX554, 30 μM.
Baseline, application, and recovery time was usually at 10, 20, and 30 min respectively.
During electrophysiological recording, the slices on the MED probe were placed in a small CO2 incubator (Asahi Lifescience; model 4020) at 32° C. The slices were placed on an interface, and a moisturized with a 95% O2 and 5% CO2 gas mixture.
Evoked field potentials at all 64 sites (minus stimulation sites) were recorded simultaneously with the multichannel recording system (Panasonic: MED64 system) at a 20 kHz sampling rate. In the case of the evoked response, one of the planar microelectrodes out of the 64 available was used for the stimulating cathode. Bipolar constant-current pulses (10-50 μA; 0.1 ms) were produced by the data acquisition software via the isolator. The stimulating microelectrode was selected by the 64-switch box.
All assays employ paired-pulse stimulation at various rat hippocampal sites to elicit evoked responses. The resulting field EPSP recordings were analyzed using Matlab software (The MathWorks, Inc.) by computing several response measures such as amplitude, halfwidth, and negative area, which apply to both the first and second evoked reponses. Amplitude was defined as the maximum depolarization magnitude relative to the average baseline reading prior to the first stimulation pulse. Halfwidth was defined as the duration of the depolarization phase of the evoked response at half its maximum amplitude value. Negative area was obtained by taking the magnitude of the integral of the evoked response curve over all segments with the same polarity as the depolarization phase. This integral spans a time window of 25 msec beginning one msec after the stimulation pulse.
Amplitudes and halfwidths for both first and second elicited responses were computed for assays SC50, SC200, and CA3-1—50. For DG50 only first and second amplitudes were computed. Negative areas for first and second responses were computed for SC50, SC200, CA3-1—50, and MF50.
All response paramters were utilized to quantify candidate sample composition effects on the hippocampus. For a given response parameter, the candidate sample composition effect was defined as the percent change of the average measure during the last five minutes of the wash-in phase with respect to the average measure of the last five minutes of the preceding, pre-wash-in control phase. […]

[5] = CX516 250 μM, individual slice files, normalized change over control
[6] = CX516 250 μM, n = 4, normalized change over control

For O=C(c1ccc2nccnc2c1)N1CCCCC1 [CX516, 1-(Quinoxalin-6-ylcarbonyl)piperidine], the “responses recorded in dentate gyrus (amplitude)” value [1] was “increase”, the “mossy fibers' response (area)” value [2] was “increase” and the “degree to which ampakines enhance activation of interneurons (rank order)” value [3] was “CX554>CX546>CX516”. The “amplitude of both responses in CA1” value ([4]; 250 μM, 50 ms or 200 ms delay between stimulation pulses) was “increase in the amplitude”, the “effect on half-width of both responses” value ([4]; 250 μM, summary of Table 1) was “no effect” and the “increase of the amplitude of first and second fEPSP” value ([4]; 250 μM, summary of Table 1) was 15-17%. The “SC 50 ms Amplitude fEPSP 1st” value [4, 5] was 0.276 and 0.211 and 0.087 and 0.110, the “SC 50 ms Amplitude fEPSP 2nd” value [4, 5] was 0.246 and 0.192 and 0.044 and 0.085 and the “SC 50 ms Widths fEPSP 1st” value [4, 5] was 0.020 and −0.023 and 0.063 and 0.007. The “SC 50 ms Widths fEPSP 2nd” value [4, 5] was −0.001 and 0.017 and 0.045 and 0.026, the “SC 200 ms Amplitude fEPSP 1st” value [4, 5] was 0.260 and 0.206 and 0.093 and 0.114 and the “SC 200 ms Amplitude fEPSP 2nd” value [4, 5] was 0.258 and 0.194 and 0.067 and 0.085. For the same compound, the “SC 200 ms Widths fEPSP 1st” value [4, 5] was 0.036 and −0.024 and 0.051 and −0.002, the “SC 200 ms Widths fEPSP 2nd” value [4, 5] was 0.035 and 0.001 and 0.049 and 0.037 and the “SC 50 ms Amplitude fEPSP 1st, Change over Control (%)” value ([4]; CX516 250 μM, n = 4) was 17.108%. For the same compound, the “SC 50 ms Amplitude fEPSP 2nd, Change over Control (%)” value ([4]; CX516 250 μM, n = 4) was 14.178%, the “SC 50 ms Widths fEPSP 1st, Change over Control (%)” value ([4]; CX516 250 μM, n = 4) was 1.658% and the “SC 50 ms Widths fEPSP 2nd, Change over Control (%)” value ([4]; CX516 250 μM, n = 4) was 2.168%. For the same compound, the “SC 200 ms Amplitude fEPSP 1st, Change over Control (%)” value ([4]; CX516 250 μM, n = 4) was 16.825%, the “SC 200 ms Amplitude fEPSP 2nd, Change over Control (%)” value ([4]; CX516 250 μM, n = 4) was 15.088% and the “SC 200 ms Widths fEPSP 1st, Change over Control (%)” value ([4]; CX516 250 μM, n = 4) was 1.525%. For the same compound, the “SC 200 ms Widths fEPSP 2nd, Change over Control (%)” value ([4]; CX516 250 μM, n = 4) was 3.055%, the “SC 50 ms Amplitude fEPSP 1st, Mean” value [4, 6] was 0.171 and the “SC 50 ms Amplitude fEPSP 2nd, Mean” value [4, 6] was 0.142. For the same compound, the “SC 50 ms Widths fEPSP 1st, Mean” value [4, 6] was 0.017, the “SC 50 ms Widths fEPSP 2nd, Mean” value [4, 6] was 0.022 and the “SC 200 ms Amplitude fEPSP 1st, Mean” value [4, 6] was 0.168. The “SC 200 ms Amplitude fEPSP 2nd, Mean” value [4, 6] was 0.151, the “SC 200 ms Widths fEPSP 1st, Mean” value [4, 6] was 0.015 and the “SC 200 ms Widths fEPSP 2nd, Mean” value [4, 6] was 0.031. For the same compound, the “kind of modulation of the responses in CA1 (halfwidth vs amplitude)” value ([4]; CX516, CX546 250 μM, CX554 30 μM) was “amplitude only modulation”.
